# Where two headings read alike, the source gives them in different places. Marks after values point to notes of the source that are not given here.
# Tests used:
# E. coli ATCC 25922 = test: Broth microdilution MIC in chemically defined minimal medium; type: cell-based; details: for phenotype induced by treatment (L-Gln dependence of growth): E. coli in minimal medium with or without L-Gln
# E. coli ATCC 29522 = test: Growth curves; type: cell-based
# human GS = details: cited from earlier work
# E. coli GS [1] = target: T1, E. coli GS (Escherichia coli, UniProt P0A9C5); details: cited from earlier work
# [2] = target: recombinant N-His6-tagged GS from Homo sapiens (Homo sapiens, UniProt P15104); test: biochemical; type: biochemical; details: for kinact: pH 7.4
# [3] = target: recombinant N-His6-tagged GS from E. coli (Escherichia coli, UniProt P0A9C5); test: biochemical; type: biochemical; details: for kinact: pH 7.4
# [4] = test system: unadenylylated E. coli GS; details: read-out: KI (literature); cited from earlier work
# [5] = target: recombinant N-His6-tagged GS from S. aureus (Staphylococcus aureus, UniProt P0A040); test: biochemical; type: biochemical; details: for kinact: pH 7.4
# E. coli GS [6] = target: T1, E. coli GS; details: cited from earlier work; remark: listed apart in the source
# [7] = test system: GS isolated from Leishmania donovani; details: read-out: apparent Km for L-Glu (literature); cited from earlier work
# E. coli GS [8] = target: T1, E. coli GS; type: biochemical; details: apparent, saturating ATP (10 mM) and NH3 (10 mM)
# recombinant human GS = recombinant human GS (Homo sapiens, UniProt P15104); type: biochemical; details: apparent, saturating ATP (10 mM) and NH3 (10 mM)
# recombinant S. aureus GS = recombinant S. aureus GS (Staphylococcus aureus, UniProt P0A040); type: biochemical; details: apparent, saturating ATP (10 mM) and NH3 (10 mM)
# M. tuberculosis = details: in vivo, cited from earlier work
# GS = details: relative to Glufos; cited from earlier work
# [9] = 23 °C, pH 7.2 phosphate buffer; isomerization to TδL-Thr; cited from earlier work
# [10] = substrate: N[C@@H](CCC(=O)O)C(=O)O; test: purified protein, by the assay type; type: biochemical; details: pH 7.4
# [11] = substrate: Nc1ncnc2c1ncn2[C@@H]1O[C@H](COP(=O)(O)OP(=O)(O)OP(=O)(O)O)[C@@H](O)[C@H]1O; test: purified protein, by the assay type; details: other: apparent; saturating L-Glu (50 mM) and NH3 (10 mM); pH 7.4; 37.0 °C
# [12] = end point, minimal medium, no amino acid supplement, 37 °C, 18–24 h
# [13] = minimal medium supplemented with 5 mM L-Glu
# [14] = read-out: apparent Km for ATP (literature)
# [15] = apparent, Kitz–Wilson fit, 37 °C
# Chain of recombinant N-His6-tagged GS from Homo sapiens (P15104 whole entry): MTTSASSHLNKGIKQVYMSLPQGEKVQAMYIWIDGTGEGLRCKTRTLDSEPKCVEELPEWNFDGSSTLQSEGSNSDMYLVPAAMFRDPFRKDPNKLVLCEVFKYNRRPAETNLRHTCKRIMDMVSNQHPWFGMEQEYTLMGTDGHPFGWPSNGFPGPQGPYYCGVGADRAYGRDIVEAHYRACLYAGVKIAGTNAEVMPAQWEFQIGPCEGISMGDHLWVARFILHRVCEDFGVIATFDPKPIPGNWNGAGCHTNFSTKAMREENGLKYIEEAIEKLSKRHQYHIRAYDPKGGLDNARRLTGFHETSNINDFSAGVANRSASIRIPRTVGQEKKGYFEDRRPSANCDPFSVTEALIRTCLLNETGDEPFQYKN
# Chain of recombinant human GS (P15104 whole entry): as above
molecule,measurement,setting,value
"C[C@H](N)C(=O)N[C@@H](C)C(=O)NC(CCP(C)(=O)O)C(=O)O (stereo partly drawn) [AAG, L-Ala-L-Ala-Glufos]",phenotype induced by treatment (L-Gln dependence of growth),E. coli ATCC 25922,glutamine auxotrophy
same,MIC90,E. coli ATCC 25922; [12],0.5 µM
same,MIC90,E. coli ATCC 25922; [13],1 µM
same,time for which growth was fully suppressed,E. coli ATCC 29522; 2 μM,> 66 h
"Nc1ncnc2c1ncn2[C@@H]1O[C@H](COP(=O)(O)OP(=O)(O)OP(=O)(O)O)[C@@H](O)[C@H]1O [ATP, adenosine triphosphate]",Km,human GS; [14],1.8 to 2.8 mM
same,Km,E. coli GS [1]; [14],100 to 700 µM
"CP(=O)(O)CCC(N)C(=O)O (centres unmarked) [Glufos, glufosinate]",kinact/KI,[2],100 M⁻¹ s⁻¹
same,kinact,[2],0.9 min⁻¹
same,kinact/KI,[3],11700 M⁻¹ s⁻¹
same,difference in inhibitor efficiency (kinact/KI) for E. coli and human GS,[3]; E. coli GS versus human GS,120 fold
same,kinact,[3],0.7 min⁻¹
same,Ki,[4],1000 nM
same,kinact/KI,[5],500 M⁻¹ s⁻¹
same,kinact,[5],0.00667 s⁻¹
"C[P@](=O)(CC[C@H](N)C(=O)O)OP(=O)(O)O [Glufos-Pi, phospho-glufosinate]",number of GS active sites occupied (of 12),E. coli GS [6],11
N[C@@H](CCC(=O)O)C(=O)O [L-Glu],Km,"human GS; read-out: L-Glu Km (literature), recombinant human enzyme expressed in E. coli, colorimetric assay",3.5 ± 0.7 mM
same,Km,[7],26.3 ± 0.4 mM
same,Km,E. coli GS [1]; read-out: apparent Km for L-Glu (literature),800 to 6600 µM
same,kcat (L-Glu),E. coli GS [8],7900 ± 300 min⁻¹
same,Km,E. coli GS [8]; read-out: Km (L-Glu),7.2 ± 0.8 mM
same,kcat (L-Glu),recombinant human GS,5100 ± 300 min⁻¹
same,Km,recombinant human GS; read-out: Km (L-Glu),37 ± 5 mM
same,kcat (L-Glu),recombinant S. aureus GS,1400 ± 100 min⁻¹
same,Km,recombinant S. aureus GS; read-out: Km (L-Glu),52 ± 7 mM
"CS(=N)(=O)CC[C@H](N)C(=O)O (some centres unmarked) [MetSox, Methionine sulfoximine]",kinact/KI,[2]; apparent inhibitor efficiency,0.4 ± 0.3 min^−1μM^−1 ×10^3
same,kinact,[2]; [15],0.4 ± 0.2 min⁻¹
same,tolerability,M. tuberculosis; guinea pig,well tolerated
same,efficacy in guinea pig lung infection model,M. tuberculosis,effective and synergistic with isoniazid
same,difference in inhibitor efficiency (kinact/KI) for E. coli and human GS,[3],250 fold
same,kinact/KI,[3],100 ± 40 min^−1μM^−1 ×10^3
same,kinact,[3],0.4 ± 0.1 min⁻¹
same,Ki,[4],2000 nM
same,kinact/KI,[5]; apparent inhibitor efficiency,28 ± 9 min^−1μM^−1 ×10^3
"CS(=O)(CCC(N)C(=O)O)=NP(=O)(O)O (centres unmarked) [MetSox-Pi, phospho-methionine sulfoximine]",active site occupancy,E. coli GS [6],~ 80%
"N[C@@H](CC[C@]1(O)CNC1=O)C(=O)O [TβL, Tabtoxinine-β-lactam]",kinact/KI (inhibitor efficiency),[2],2 ± 1 min^−1μM^−1
same,kinact/KI,[2]; apparent inhibitor efficiency,2 ± 1 min^−1μM^−1 ×10^3
same,kinact,[2]; [15],0.3 ± 0.1 min⁻¹
same,kinact/KI (inhibitor efficiency),[3],180 ± 70 min^−1μM^−1
same,difference in inhibitor efficiency (kinact/KI) for E. coli and human GS,[3]; E. coli GS versus human GS,90 fold
same,kinact/KI,[3]; apparent inhibitor efficiency,180 ± 70 min^−1μM^−1 ×10^3
same,kinact,[3]; [15],0.3 ± 0.1 min⁻¹
same,recovery of GS activity after dialysis of inhibition complex,[3]; several days of dialysis at 4 °C and 37 °C,could not be recovered
same,kinact/KI (inhibitor efficiency),[5],8 ± 3 min^−1μM^−1
same,kinact/KI,[5]; apparent inhibitor efficiency,8 ± 3 min^−1μM^−1 ×10^3
same,kinact,[5]; [15],0.0067 ± 0.0017 s⁻¹
"C[C@H](NC(=O)[C@H](C)NC(=O)[C@@H](N)CCP(C)(=O)[O-])C(=O)O.[Na+] [bialaphos sodium salt, Glufos-L-Ala-L-Ala tripeptide, reference compound]",phenotype induced by treatment (L-Gln dependence of growth),E. coli ATCC 25922,confirmed
"NC[C@H]1O[C@H](O[C@H]2[C@H](O)[C@@H](O[C@H]3O[C@H](CO)[C@@H](O)[C@H](N)[C@H]3O)[C@H](N)C[C@@H]2N)[C@H](O)[C@@H](O)[C@@H]1O [kanamycin, reference compound]",MIC,"E. coli ATCC 25922; control antibiotic on every plate, minimal medium",8 µM
CP(=O)(O)C(O)CC(N)C(=O)O (centres unmarked) [γ-hydroxylated variant of Glufos],increase of the rate of GS activation,GS,50%
tabtoxin [TβL-Thr],isomerization half-life,[9],37 h
same,phenotype induced by treatment (L-Gln dependence of growth),E. coli ATCC 25922,glutamine auxotrophy
same,MIC90,E. coli ATCC 25922; [12],0.5 µM
same,MIC90,E. coli ATCC 25922; [13],1 µM
same,growth curve with L-Gln supplementation,"E. coli ATCC 29522; 2 μM, L-Gln supplementation 2.5 mM",matched the control
same,growth with L-Gln supplementation,"E. coli ATCC 29522; 2 μM, medium supplemented with 0.1 mM L-Gln",recovered to near control levels
same,time after which growth started to recover,"E. coli ATCC 29522; 2 μM, minimal medium",26 h
same,time for which growth was suppressed,E. coli ATCC 29522; 100 μM,> 50 h
S. aureus GS (SA) (Staphylococcus aureus subsp. aureus N315) (protein) MPKRTFTKEDIRKFAEEENVRYLRLQFTDILGTIKNVEVPVSQLEKVLDNEMMFDGSSIEGFVRIEESDMYLHPDLDTWVIFPWTAGQGKVARLICDVYKTDGTPFEGDPRANLKRVLKEMEDLGFTDFNLGPEPEFFLFKLDEKGEPTLELNDDGGYFDLAPTDLGENCRRDIVLELEDMGFDIEASHHEVAPGQHEIDFKYADAVTACDNIQTFKLVVKTIARKHNLHATFMPKPLFGVNGSGMHFNVSLFKGKENAFFDPNTEMGLTETAYQFTAGVLKNARGFTAVCNPLVNSYKRLVPGYEAPCYIAWSGKNRSPLIRVPSSRGLSTRIEVRSVDPAANPYMALAAILEAGLDGIKNKLKVPEPVNQNIYEMNREEREAVGIQDLPSTLYTALKAMRENEVIKKALGNHIYNQFINSKSIEWDYYRTQVSEWERDQYMKQY,Km,[10],52 ± 7 mM
same,kcat,[10],23.3 ± 1.67 s⁻¹
same,kcat/Km,[10],450 ± 66.7 M⁻¹ s⁻¹
recombinant S. aureus GS (Staphylococcus aureus) (protein) MPKRTFTKDDIRKFAEEENVRYLRLQFTDILGTIKNVEVPVSQLEKVLDNEMMFDGSSIEGFVRIEESDMYLHPDLDTWVIFPWTAGQGKVARLICDVYKTDGTPFEGDPRANLKRVLKEMEDLGFTDFNLGPEPEFFLFKLDEKGEPTLELNDDGGYFDLAPTDLGENCRRDIVLELEDMGFDIEASHHEVAPGQHEIDFKYADAVTACDNIQTFKLVVKTIARKHNLHATFMPKPLFGVNGSGMHFNVSLFKGKENAFFDPNTEMGLTETAYQFTAGVLKNARGFTAVCNPLVNSYKRLVPGYEAPCYIAWSGKNRSPLIRVPSSRGLSTRIEVRSVDPAANPYMALAAILEAGLDGIKNKLKVPEPVNQNIYEMNREEREAVGIQDLPSTLYTALKAMRENEVIKKALGNHIYNQFINSKSIEWDYYRTQVSEWERDQYMKQY,Km,[11],1.8 ± 0.1 mM
same,kcat,[11],12 s⁻¹
same,kcat/Km,[11],6670 M⁻¹ s⁻¹
E. coli GS (EC) (Escherichia coli K-12) (protein) SAEHVLTMLNEHEVKFVDLRFTDTKGKEQHVTIPAHQVNAEFFEEGKMFDGSSIGGWKGINESDMVLMPDASTAVIDPFFADSTLIIRCDILEPGTLQGYDRDPRSIAKRAEDYLRSTGIADTVLFGPEPEFFLFDDIRFGSSISGSHVAIDDIEGAWNSSTQYEGGNKGHRPAVKGGYFPVPPVDSAQDIRSEMCLVMEQMGLVVEAHHHEVATAGQNEVATRFNTMTKKADEIQIYKYVVHNVAHRFGKTATFMPKPMFGDNGSGMHCHMSLSKNGVNLFAGDKYAGLSEQALYYIGGVIKHAKAINALANPTTNSYKRLVPGYEAPVMLAYSARNRSASIRIPVVSSPKARRIEVRFPDPAANPYLCFAALLMAGLDGIKNKIHPGEAMDKNLYDLPPEEAKEIPQVAGSLEEALNELDLDREFLKAGGVFTDEAIDAYIALRREEDDRVRMTPHPVEFELYYSV,Km,[10],7.2 ± 0.8 mM
same,kcat,[10],132 ± 5 s⁻¹
same,kcat/Km,[10],18300 ± 1670 M⁻¹ s⁻¹
recombinant E. coli GS (Escherichia coli K-12) (protein) MSAEHVLTMLNEHEVKFVDLRFTDTKGKEQHVTIPAHQVNAEFFEEGKMFDGSSIGGWKGINESDMVLMPDASTAVIDPFFADSTLIIRCDILEPGTLQGYDRDPRSIAKRAEDYLRSTGIADTVLFGPEPEFFLFDDIRFGSSISGSHVAIDDIEGAWNSSTQYEGGNKGHRPAVKGGYFPVPPVDSAQDIRSEMCLVMEQMGLVVEAHHHEVATAGQNEVATRFNTMTKKADEIQIYKYVVHNVAHRFGKTATFMPKPMFGDNGSGMHCHMSLSKNGVNLFAGDKYAGLSEQALYYIGGVIKHAKAINALANPTTNSYKRLVPGYEAPVMLAYSARNRSASIRIPVVSSPKARRIEVRFPDPAANPYLCFAALLMAGLDGIKNKIHPGEAMDKNLYDLPPEEAKEIPQVAGSLEEALNELDLDREFLKAGGVFTDEAIDAYIALRREEDDRVRMTPHPVEFELYYSV,Km,[11],0.7 ± 0.1 ^a mM
same,kcat,[11],122 s⁻¹
same,kcat/Km,[11],173000 M⁻¹ s⁻¹

# — PMC5934995 (Biochemistry, 2017)
